For one series, the target named is T1, PfDHODH (Plasmodium falciparum, UniProt Q08210).
T1 construct: encoding amino acid residues 158 to 569 fused to a His6-SUMO tag in its N-terminus; His6-SUMO (N, cleaved yes); made in house; host or cells: E. coli BL21 Star (DE3), pETSUMO/PfDHODH
Put plainly: PfDHODH inhibition assay (DCIP end-point, 384-well). The following applies: recombinant tag-free PfDHODH, 20 min, serial dilutions 0.0007-22.7 µM; read-out: IC50 DHODH Pf. The class given is biochemical. Here is the method:
The screening of 40,400 compounds was conducted in 384-well plates by adapting the end-point assay reported before. First, 1 µL of 200 µM compound was transferred into 384-well plates using a Benchtop Multi-Pipetter EDR-384SR (Biotech Co., Ltd., Tokyo, Japan). […] Next, 38 µL of assay mix (100 mM HEPES-NaOH pH 7.5, 5% (v/v) glycerol, 150 mM NaCl, 0.05% (v/v) Triton X-100, 15 µM decylubiquinone (dUQ, Sigma), 120 µM 2,6-dichlorophenolindophenol (DCIP, Sigma), and 20 nM PfDHODH) were dispensed into all wells and mixed at 600 rpm for 1 min by a MixMate®® (Eppendorf). The reaction was started by the addition of 5 µL of 1.8 mM L-DHO (Sigma) as the substrate and mixed as described above for 20 s. The absorbance at 600 nm was recorded using a SpectraMax®® Paradigm®® Multi-Mode Microplate Reader (Molecular Devices) before (t0) and after 20 min (t20) incubation at room temperature. The readings at t0 were subtracted from t20, and PfDHODH inhibition was calculated as the inhibition relative to the negative and positive controls in a single-point assay. Hits were defined as compounds inhibiting more than 50% of PfDHODH activity at 4.5 µM. The quality of the screening system was evaluated by calculating statistical parameters: Z′-factor, S/N, S/B, SW, and CV, as previously reported. The IC50 values of the hit compounds were determined using the same assay system containing serial dilutions of each compound in triplicates (22.7, 6.8, 2.27, 0.68, 0.227, 0.068, 0.023, 0.007, 0.002, 0.0007 µM) using GraphPad Prism 8.0 software (GraphPad Software Inc., San Diego, CA, USA).

A further series deals with T2, HsDHODH (Homo sapiens, UniProt Q02127).
T2 construct: made in house
T2 sequence (Q02127 whole entry): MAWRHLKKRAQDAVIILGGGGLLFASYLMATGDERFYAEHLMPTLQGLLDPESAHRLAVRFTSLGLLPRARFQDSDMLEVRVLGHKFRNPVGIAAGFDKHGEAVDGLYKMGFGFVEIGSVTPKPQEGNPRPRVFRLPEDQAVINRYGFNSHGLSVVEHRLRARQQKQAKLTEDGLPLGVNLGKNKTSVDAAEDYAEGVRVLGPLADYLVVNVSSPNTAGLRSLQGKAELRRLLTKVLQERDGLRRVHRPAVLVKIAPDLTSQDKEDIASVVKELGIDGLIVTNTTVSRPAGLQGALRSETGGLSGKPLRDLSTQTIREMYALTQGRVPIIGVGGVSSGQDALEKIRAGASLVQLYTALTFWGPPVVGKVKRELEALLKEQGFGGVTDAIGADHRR
As to the kind of experiment: HsDHODH counter-assay. The class given is biochemical. Particulars: purified recombinant HsDHODH, tested at 4.5 µM; read-out: IC50 DHODH Hs. The protocol:
Selected hit compounds from PfDHODH screening were tested for potential inhibition against HsDHODH at 4.5 µM. The HsDHODH used in this study was purified as previously reported. The HsDHODH assay was performed similarly to that for PfDHODH, but in an assay mix consisting of 50 mM Tris-HCl pH 8.0, 0.1% (v/v) Triton X-100, 2 mM potassium cyanide (KCN, Wako), 60 µM dUQ, and 120 µM DCIP, with the reaction started by the addition of 200 µM L-DHO (final concentration) in triplicate. For this assay, DMSO was used as a negative control and 10 µM of lapachol was used as a positive control (100% inhibition). The relative inhibition was calculated as described above.

Series [1] concerns the target mammalian mitochondrial complexes I–III (Bos taurus, UniProt P00157+P03887+P17694+P42026). As to the kind of experiment: NADH-cytochrome c reductase (complexes I–III) activity assay. The class given is biochemical. The following applies: bovine heart mitochondria, range tested 0.0007 to 22.7 µM; read-out: IC50 Mammalian Mitochondrial CI–III. Here is the method: (§1) Bovine heart mitochondria were prepared as previously described. The NADH-cytochrome c reductase (complexes I–III) and succinate-cytochrome c reductase (complexes II–III) activities were assayed in 384-well plates following an established protocol with small modifications. Complex I–III activity was assayed in a reaction mix containing 50 mM phosphate buffer pH 7.4, 2 mM KCN, 200 µM cytochrome c (cytochrome c from horse heart, Nacalai tesque), and 15 µg/mL mitochondria. Plates containing 1 µL serial dilutions of PfDHODH inhibitors were prepared and mixed with 38 µL of the reaction mix, as described above. The reaction was started by the addition of 5 µL of 2.6 mM NADH, and the assay was performed as described for PfDHODH, but at 550 nm and with 15 min of incubation. Complex II–III activity was assayed similarly to complex I–III activity but with 100 µM cytochrome c and 25 µg/mL mitochondria, and the reaction was started by 10 mM succinate. For both assays, DMSO and 5 µM ascochlorin were used as negative and positive controls, respectively. Assays were performed in triplicate.

Series [2] addresses mammalian mitochondrial complexes II–III (Bos taurus, UniProt P00157+P35720+Q3T189+Q95123). As to the kind of experiment: succinate-cytochrome c reductase (complexes II–III) activity assay. The format is biochemical. Particulars: bovine heart mitochondria, range tested 0.0007 to 22.7 µM; read-out: IC50 Mammalian Mitochondrial CII–III. The protocol: as §1
The subject of a further series is P. falciparum 3D7. Put plainly: In vitro antimalarial assay (PfLDH/diaphorase). The following applies: Plasmodium falciparum, growth inhibition, 72 h, 0.0003 to 10 µM, read-out: EC50 Pf3D7. The class given is cell-based. The protocol: This assay was conducted using human red blood cells (RBC) following the guidelines of the ethics committee of Nagasaki University (permission no. 19). Human RBC was obtained from the Japanese Red Cross Society. The P. falciparum 3D7 strain was cultured in 2% hematocrit type O human RBC in RPMI-1640 medium (Gibco) supplemented with 23.8 mM sodium bicarbonate (Wako), 50 mg/L hypoxanthine (Wako), 25 mg/L gentamycin (Sigma), and 0.5% (w/v) AlbuMAX®® II (Gibco) under a 5% O2, 5% CO2, and 90% N2 atmosphere at 37 °C. Parasites were synchronized with 5% (w/v) D-sorbitol (Wako).
Synchronized ring-stage parasites at 0.3% parasitemia and 2% hematocrit were cultured in a 384-well plate at 25 µL with test compounds at a final concentration in the range of 0.0003 to 10 µM with a fixed DMSO concentration of 0.4% (v/v). Parasite growth was monitored by the diaphorase-coupled P. falciparum lactate dehydrogenase (PfLDH) assay, as previously described. After 72 h, 70 µL of the assay solution (150 mM lithium L-lactate (Wako), 0.05 mg/mL 3-acetylpyridine adenine dinucleotide (Oriental Yeast Co., Ltd., Tokyo, Japan), 0.2 mg/mL nitro blue tetrazolium (Wako), 1 unit/mL diaphorase, and 100 mM Tris-HCl pH 8.0) were mixed with the parasite culture and incubated at room temperature for 40 min, and the generated nitro blue formazan was measured at 650 nm using a SpectraMax®® Paradigm®® Multi-Mode Microplate Reader. […] The EC50 was calculated using GraphPad Prism 8.0 software from the mean of quadruplets values.

A short description of series [3]: Cytotoxicity assay, HDF (Cell Counting Kit-8). The format is cell-based. The following applies: human dermal fibroblast (HDF) cells, normal human dermal fibroblasts. The protocol: (§2) Human dermal fibroblast cells (HDF, Zenbio, Inc., Durham, NC, USA) were cultured in Dulbecco’s Modified Eagle Medium/Nutrient Mixture F-12 medium (DMEM/F12, Gibco), human pancreatic carcinoma cells (PANC-1, DS Pharma Biomedical, Co., Ltd.) were cultured in DMEM (Gibco), and human colorectal adenocarcinoma cells (DLD-1, Taiho Pharmaceutical Company) were cultured in RPMI-1640 medium (FUJIFILM Wako Pure Chemicals). The culture mediums were supplemented with 10% (v/v) heat-inactivated fetal bovine serum (Gibco) and the cells were maintained at 37 °C under 5% CO2.
(§3) HDF, PANC-1, and DLD-1 were seeded at 2.5 × 10^4 cells/well on a 96-well plate and incubated at 37 °C under 5% CO2 overnight. The cells were then washed with PBS and the medium was replaced with 99 µL of fresh media. Then, 1 µL of the compounds or DMSO was added to the respective wells. As controls, wells containing 1% (v/v) DMSO in column 1 and wells containing only the culture medium in column 12 were used as the negative and positive controls, respectively. After 48 h of incubation, the cells were washed with PBS, and 99 µL of fresh media was replaced, followed by the addition of 10 µL of Cell Counting Kit-8 (Dojindo) to each well. After 3 h of incubation, the absorbance was measured at 450 nm using a SpectraMax®® Paradigm®® Multi-Mode microplate Reader. The calculation of cell viability in the test well was based on the absorbance of control wells according to the manufacturer’s protocol. The mean of quadruplet values was used to calculate the CC50 using GraphPad Prism 8.0 software.
In general terms: Tetrazolium assays rely on reduction of a dye to a coloured formazan, in cell work by metabolically active cells.

Series [4] in a line: Cytotoxicity assay, PANC-1 (Cell Counting Kit-8). Particulars: PANC-1 human pancreatic carcinoma cells. The class given is cell-based. The protocol: as §2, §3
Series [5] in a line: Cytotoxicity assay, DLD-1 (Cell Counting Kit-8). The class given is cell-based. Particulars: DLD-1 human colorectal adenocarcinoma cells. The protocol:
as §2, §3

Molecules are shown by their SMILES.

T1 sequence (Q08210 158-569): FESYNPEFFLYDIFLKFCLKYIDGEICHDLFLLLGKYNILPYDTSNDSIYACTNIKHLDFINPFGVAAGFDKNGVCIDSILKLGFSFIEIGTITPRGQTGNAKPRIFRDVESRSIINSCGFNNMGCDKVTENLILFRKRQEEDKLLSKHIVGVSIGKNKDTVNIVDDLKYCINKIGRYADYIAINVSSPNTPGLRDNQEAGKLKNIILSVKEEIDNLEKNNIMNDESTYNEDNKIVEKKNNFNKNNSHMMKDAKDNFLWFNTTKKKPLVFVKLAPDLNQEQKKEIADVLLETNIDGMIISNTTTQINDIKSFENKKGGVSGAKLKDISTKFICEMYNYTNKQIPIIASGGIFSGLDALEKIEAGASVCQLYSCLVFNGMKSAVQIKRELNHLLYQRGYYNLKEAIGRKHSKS

The IC50 is the point on the concentration scale where inhibition reaches its midpoint. What is called EC50 is the concentration at which the effect is half-maximal. Regarding `N=C1Sc2cc(-c3cccc4ccccc34)ccc2C2=NCCCN12` [Compound 2], the IC50 at PfDHODH is 0.85 ± 0.05 µM; at HsDHODH it was greater than 4.5 µM; in series [1], 13.9 ± 2.14 µM; in series [2], greater than 22.7 µM. The EC50 with P. falciparum 3D7 was greater than 10 µM. For the same molecule, the concentration for a half-maximal effect (EC50) at 48 h in series [3], in series [4] and in series [5] was greater than 10 µM throughout.
As for `N=C1Sc2ccc(-c3ccccc3)cc2C2=NCCCN12` [Compound 9], the IC50 on PfDHODH is 0.76 ± 0.08 µM; at HsDHODH it was greater than 4.5 µM; in series [1], greater than 22.7 µM; in series [2] it was greater than 22.7 µM. Also, in the series with P. falciparum 3D7, the EC50 was greater than 10 µM. For the same molecule, the EC50 at 48 h in series [3], in series [4] and in series [5] was greater than 10 µM throughout.
Consider `N=C1Sc2cc3ccccc3cc2C2=NCCCN12` [Compound 11, 2,3,4,6-tetrahydro-7-thia-1,5-diazatetraphen-6-imine], for which the IC50 at PfDHODH was 6.42 ± 0.09 µM; at HsDHODH, greater than 4.5 µM; in series [1], greater than 22.7 µM; in series [2], greater than 22.7 µM. For the same molecule, the EC50 in the series with P. falciparum 3D7 was greater than 10 µM. Moreover, the EC50 at 48 h in series [3], in series [4] and in series [5] was greater than 10 µM throughout.
For the molecule `N=C1Sc2cc(-c3ccc(C(N)=O)cc3)ccc2C2=NCCCN12` [Compound 16], the IC50 at PfDHODH was 1.82 ± 0.08 µM; on HsDHODH, greater than 4.5 µM; in series [1], greater than 22.7 µM; in series [2], greater than 22.7 µM. Further, the EC50 with P. falciparum 3D7 was greater than 10 µM. Also, the EC50 at 48 h in series [3], in series [4] and in series [5] was greater than 10 µM in each case.
On to `CC(=O)Nc1cccc(-c2ccc3c(c2)SC(=N)N2CCCN=C32)c1` [Compound 23], for which the IC50 on PfDHODH is 1.85 ± 0.19 µM; at HsDHODH it was greater than 4.5 µM; in series [1], greater than 22.7 µM; in series [2], greater than 22.7 µM. Besides, in the series with P. falciparum 3D7, the EC50 is greater than 10 µM. In addition, the concentration for a half-maximal effect (EC50) at 48 h in series [3], in series [4] and in series [5] was greater than 10 µM in each case.
Take `CS(=O)(=O)Nc1cccc(-c2ccc3c(c2)SC(=N)N2CCCN=C32)c1` [Compound 24]: the IC50 was 1.94 ± 0.07 µM at PfDHODH, greater than 4.5 µM at HsDHODH, greater than 22.7 µM in series [1] and greater than 22.7 µM in series [2]. Further, the EC50 with P. falciparum 3D7 was greater than 10 µM. Also, the half-maximal effective concentration (EC50) at 48 h in series [3], in series [4] and in series [5] was greater than 10 µM in each case.
Take `CC(=O)NCCCCCOc1cccc(-c2ccc3c(c2)SC(=N)N2CCCN=C32)c1` [Compound 26]: the IC50 was 3.49 ± 0.21 µM on PfDHODH, greater than 4.5 µM on HsDHODH, greater than 22.7 µM in series [1] and greater than 22.7 µM in series [2]. Besides, in the series on P. falciparum 3D7, the EC50 was greater than 10 µM. For the same molecule, the EC50 at 48 h in series [3], in series [4] and in series [5] was greater than 10 µM throughout.
Turning to `CC(=O)Nc1ccc2c(c1)SN1CCCN=C21` [Compound 28], the IC50 on PfDHODH was 18.5 ± 0.4 µM; on HsDHODH, greater than 4.5 µM; in series [1], greater than 22.7 µM; in series [2], greater than 22.7 µM. The EC50 in the series with P. falciparum 3D7 is greater than 10 µM. For the same molecule, the EC50 at 48 h in series [3], in series [4] and in series [5] was greater than 10 µM in each case.
`FC(F)(F)c1ccc2c(c1)SN1CCCN=C21` [Compound 29]: the IC50 at PfDHODH is 9.71 ± 0.29 µM; at HsDHODH it was greater than 4.5 µM; in series [1], greater than 22.7 µM; in series [2], greater than 22.7 µM. The EC50 with P. falciparum 3D7 was greater than 10 µM. Further, the EC50 at 48 h in series [3], in series [4] and in series [5] was greater than 10 µM in each case.
`c1cncc(-c2ccc3c(c2)SN2CCCN=C32)c1` [Compound 35]: the IC50 at PfDHODH was 1.48 ± 0.07 µM; on HsDHODH, greater than 4.5 µM; in series [1], greater than 22.7 µM; in series [2] it was greater than 22.7 µM. In addition, the EC50 in the series with P. falciparum 3D7 was greater than 10 µM. The EC50 at 48 h in series [3], in series [4] and in series [5] was greater than 10 µM throughout.

For the origin of these results see publication PMC8268581, “Identification of 3,4-Dihydro-2H,6H-pyrimido[1,2-c][1,3]benzothiazin-6-imine Derivatives as Novel Selective Inhibitors of Plasmodium falciparum Dihydroorotate Dehydrogenase” (International Journal of Molecular Sciences, 2021).
